Measured values reported in PMC5218480 (PLoS ONE, 2017).

Test system: MV-4-11 cells
Experiment: Gene expression microarray analysis (Affymetrix PrimeView) and GSEA
Format: cell-based, human
Set-up: RFU PODN (11730768_x_at) / Fold change /veh PODN (11730768_x_at) / RFU LINC00158 (11744669_a_at) / Fold change /veh LINC00158 (11744669_a_at) / RFU DUSP10 (11751237_a_at) / Fold change /veh DUSP10 (11751237_a_at) / RFU ID3 (11757404_x_at) / Fold change /veh ID3 (11757404_x_at) / RFU PLEKHG5 (11737974_s_at) / Fold change /veh PLEKHG5 (11737974_s_at) / RFU LRRC4B (11730491_at) / Fold change /veh LRRC4B (11730491_at) / RFU GIMAP4 (11747438_a_at) / Fold change /veh GIMAP4 (11747438_a_at) / RFU KRT8 (11758183_x_at) / Fold change /veh KRT8 (11758183_x_at) / RFU CNN1 (11734310_a_at) / Fold change /veh CNN1 (11734310_a_at) / RFU VPS37D (11726825_at) / Fold change /veh VPS37D (11726825_at) / RFU C10orf10 (11716522_x_at) / Fold change /veh C10orf10 (11716522_x_at) / RFU KIR2DL2 /// KIR2DL4 /// KIR2DL5A /// KIR2DL5B /// KIR2DS1 /// KIR2DS2 /// KIR2DS3 /// KIR2DS4 /// KIR3DL3 /// KIR3DL3 /// KIR3DS1 (11738374_at) / Fold change /veh KIR2DL2 /// KIR2DL4 /// KIR2DL5A /// KIR2DL5B /// KIR2DS1 /// KIR2DS2 /// KIR2DS3 /// KIR2DS4 /// KIR3DL3 /// KIR3DL3 /// KIR3DS1 (11738374_at) / RFU C1QL1 (11718748_at) / Fold change /veh C1QL1 (11718748_at) / RFU TMPRSS4 (11747572_a_at) / Fold change /veh TMPRSS4 (11747572_a_at) / RFU HAMP (11756126_x_at) / Fold change /veh HAMP (11756126_x_at) / RFU RNFT2 (11725882_a_at) / Fold change /veh RNFT2 (11725882_a_at) / RFU NR4A2 (11747474_a_at) / Fold change /veh NR4A2 (11747474_a_at) / RFU ABCC12 (11746883_a_at) / Fold change /veh ABCC12 (11746883_a_at) / RFU TMEM136 (11760407_x_at) / Fold change /veh TMEM136 (11760407_x_at) / RFU CLDN22 /// WWC2 (11732394_at) / Fold change /veh CLDN22 /// WWC2 (11732394_at) / RFU HLA-DPB1 (11760878_x_at) / Fold change /veh HLA-DPB1 (11760878_x_at) / RFU SPINT1 (11716480_a_at) / Fold change /veh SPINT1 (11716480_a_at) / RFU GAP43 (11754022_s_at) / Fold change /veh GAP43 (11754022_s_at) / RFU A4GNT (11735810_at) / Fold change /veh A4GNT (11735810_at) / RFU PRB3 (11715151_x_at) / Fold change /veh PRB3 (11715151_x_at) / RFU TUBB4B (11761932_at) / Fold change /veh TUBB4B (11761932_at) / RFU CAPN14 (11732068_a_at) / Fold change /veh CAPN14 (11732068_a_at) / RFU TMCC2 (11721928_a_at) / Fold change /veh TMCC2 (11721928_a_at) / RFU IRGQ (11745062_a_at) / Fold change /veh IRGQ (11745062_a_at) / RFU FAM174B (11720279_a_at) / Fold change /veh FAM174B (11720279_a_at) / RFU TMPRSS4 (11748680_a_at) / Fold change /veh TMPRSS4 (11748680_a_at) / RFU FAM212B (11763350_a_at) / Fold change /veh FAM212B (11763350_a_at) / RFU PLEKHG5 (11743358_a_at) / Fold change /veh PLEKHG5 (11743358_a_at) / RFU ZSCAN30 (11745921_a_at) / Fold change /veh ZSCAN30 (11745921_a_at) / RFU CMKLR1 (11741424_a_at) / Fold change /veh CMKLR1 (11741424_a_at) / RFU LOC101060620 /// MAPK8IP1 (11723275_at) / Fold change /veh LOC101060620 /// MAPK8IP1 (11723275_at) / RFU SPTSSB (11747773_x_at) / Fold change /veh SPTSSB (11747773_x_at) / RFU PRSS12 (11739890_at) / Fold change /veh PRSS12 (11739890_at) / RFU BIN1 (11741810_x_at) / Fold change /veh BIN1 (11741810_x_at) / RFU WNT11 (11732464_a_at) / Fold change /veh WNT11 (11732464_a_at) / RFU C10orf10 (11716521_a_at) / Fold change /veh C10orf10 (11716521_a_at) / RFU C5orf56 (11738089_at) / Fold change /veh C5orf56 (11738089_at) / RFU CYB561 (11721691_x_at) / Fold change /veh CYB561 (11721691_x_at) / RFU ANKRD19P (11752326_a_at) / Fold change /veh ANKRD19P (11752326_a_at) / RFU OR2T12 /// OR2T33 /// OR2T8 (11738714_s_at) / Fold change /veh OR2T12 /// OR2T33 /// OR2T8 (11738714_s_at) / RFU VCAN (11748164_a_at) / Fold change /veh VCAN (11748164_a_at) / RFU JSRP1 (11732532_at) / Fold change /veh JSRP1 (11732532_at) / RFU KRTAP10-11 (11738290_x_at) / Fold change /veh KRTAP10-11 (11738290_x_at) / RFU MYO3A (11730013_a_at) / Fold change /veh MYO3A (11730013_a_at) / RFU EBF3 (11725865_a_at) / Fold change /veh EBF3 (11725865_a_at) / RFU CAMK2N1 (11719241_x_at) / Fold change /veh CAMK2N1 (11719241_x_at) / RFU C5orf56 (11738088_a_at) / Fold change /veh C5orf56 (11738088_a_at) / RFU OLFML3 (11715873_a_at) / Fold change /veh OLFML3 (11715873_a_at) / RFU LOC100653217 /// NTM (11731650_a_at) / Fold change /veh LOC100653217 /// NTM (11731650_a_at) / RFU MAPK11 (11762145_a_at) / Fold change /veh MAPK11 (11762145_a_at) / RFU FIZ1 (11724087_x_at) / Fold change /veh FIZ1 (11724087_x_at) / RFU OASL (11726364_x_at) / Fold change /veh OASL (11726364_x_at) / RFU SOX15 (11748057_x_at) / Fold change /veh SOX15 (11748057_x_at) / RFU CD79A (11719716_a_at) / Fold change /veh CD79A (11719716_a_at) / RFU HIST1H1D (11736915_at) / Fold change /veh HIST1H1D (11736915_at) / RFU CASKIN2 (11723855_a_at) / Fold change /veh CASKIN2 (11723855_a_at) / RFU LOC730098 (11760151_x_at) / Fold change /veh LOC730098 (11760151_x_at) / RFU OR4N2 (11742367_at) / Fold change /veh OR4N2 (11742367_at) / RFU PRRT2 (11749266_a_at) / Fold change /veh PRRT2 (11749266_a_at) / RFU SNX32 (11753110_a_at) / Fold change /veh SNX32 (11753110_a_at) / RFU CDHR5 (11726645_a_at) / Fold change /veh CDHR5 (11726645_a_at) / RFU RCAN1 (11760418_a_at) / Fold change /veh RCAN1 (11760418_a_at) / RFU FAM167A (11723789_a_at) / Fold change /veh FAM167A (11723789_a_at) / RFU FAM26E (11764081_at) / Fold change /veh FAM26E (11764081_at) / RFU ISYNA1 (11749810_s_at) / Fold change /veh ISYNA1 (11749810_s_at) / RFU ACY1 (11761880_at) / Fold change /veh ACY1 (11761880_at) / RFU 11764098_at / Fold change /veh 11764098_at / RFU SAMD14 (11745864_x_at) / Fold change /veh SAMD14 (11745864_x_at) / RFU NPB (11741838_a_at) / Fold change /veh NPB (11741838_a_at) / RFU TMPRSS6 (11731388_a_at) / Fold change /veh TMPRSS6 (11731388_a_at) / RFU KRTAP10-2 (11738614_at) / Fold change /veh KRTAP10-2 (11738614_at) / RFU ARHGAP8 /// PRR5-ARHGAP8 (11727945_x_at) / Fold change /veh ARHGAP8 /// PRR5-ARHGAP8 (11727945_x_at) / RFU KRTAP5-7 /// NADSYN1 (11734609_at) / Fold change /veh KRTAP5-7 /// NADSYN1 (11734609_at) / RFU RASL12 (11751679_a_at) / Fold change /veh RASL12 (11751679_a_at) / RFU CDKN2B (11736163_a_at) / Fold change /veh CDKN2B (11736163_a_at) / RFU PRF1 (11729649_at) / Fold change /veh PRF1 (11729649_at) / RFU, ZNF638 /// ZNF638-IT1 / Fold change vs veh, ZNF638 /// ZNF638-IT1 / RFU, PANK3 / Fold change vs veh, PANK3 / RFU, SH3YL1 / Fold change vs veh, SH3YL1 / RFU, ZEB2 / Fold change vs veh, ZEB2 / RFU, NRIP1 / Fold change vs veh, NRIP1 / RFU, PTTG1IP / Fold change vs veh, PTTG1IP / RFU, CAPN2 / Fold change vs veh, CAPN2 / RFU, MED14 / Fold change vs veh, MED14 / RFU, SNORA58 / Fold change vs veh, SNORA58 / RFU, C1orf63 / Fold change vs veh, C1orf63 / RFU, LRRFIP1 / Fold change vs veh, LRRFIP1 / RFU, NDUFAF7 / Fold change vs veh, NDUFAF7 / RFU, SLC12A2 / Fold change vs veh, SLC12A2 / RFU, IBTK / Fold change vs veh, IBTK / RFU, ESF1 / Fold change vs veh, ESF1 / Fold change vs veh, TMEM50B / RFU, TAOK1 / Fold change vs veh, TAOK1 / RFU, ACBD3 / Fold change vs veh, ACBD3 / RFU, TMA16 / Fold change vs veh, TMA16 / RFU, RWDD3 / Fold change vs veh, RWDD3 / RFU, BCAT1 / Fold change vs veh, BCAT1 / RFU, EDEM3 / Fold change vs veh, EDEM3 / RFU, TMEM33 / Fold change vs veh, TMEM33 / RFU, WDR75 / Fold change vs veh, WDR75 / RFU, AHCTF1 / Fold change vs veh, AHCTF1 / RFU, TFRC / Fold change vs veh, TFRC / RFU, ZDHHC17 / Fold change vs veh, ZDHHC17 / RFU, NOM1 / Fold change vs veh, NOM1 / RFU, ARL8B / Fold change vs veh, ARL8B / RFU, ZBTB11 / Fold change vs veh, ZBTB11 / RFU, TAMM41 / Fold change vs veh, TAMM41 / RFU, KIAA1704 /// LOC100996395 / Fold change vs veh, KIAA1704 /// LOC100996395 / RFU, ING1 / Fold change vs veh, ING1 / RFU, TRMT61B / Fold change vs veh, TRMT61B / RFU, FUBP3 / Fold change vs veh, FUBP3 / RFU, TP53 / Fold change vs veh, TP53 / RFU, TNKS2 / Fold change vs veh, TNKS2 / RFU, ZFP14 / Fold change vs veh, ZFP14 / RFU, ACTR2 / Fold change vs veh, ACTR2 / RFU, PPP3R1 / Fold change vs veh, PPP3R1 / RFU, PIK3R1 / Fold change vs veh, PIK3R1 / RFU, HNRNPA1 / Fold change vs veh, HNRNPA1 / RFU, RNF170 / Fold change vs veh, RNF170 / RFU, ZNF28 / Fold change vs veh, ZNF28 / RFU, RNGTT / Fold change vs veh, RNGTT / RFU, OGT / Fold change vs veh, OGT / RFU, BRD1 / Fold change vs veh, BRD1 / RFU, MARS / Fold change vs veh, MARS / RFU, ZNF655 / Fold change vs veh, ZNF655 / RFU, FAHD1 / Fold change vs veh, FAHD1 / RFU, BDP1 / Fold change vs veh, BDP1 / RFU, LRRCC1 / Fold change vs veh, LRRCC1 / RFU, ARID1A / Fold change vs veh, ARID1A / RFU, ZNF146 / Fold change vs veh, ZNF146 / RFU, ZNF330 / Fold change vs veh, ZNF330 / RFU, GPN3 / Fold change vs veh, GPN3 / RFU, C9orf123 / Fold change vs veh, C9orf123 / RFU, N4BP2L2 / Fold change vs veh, N4BP2L2 / RFU, ARFIP1 / Fold change vs veh, ARFIP1 / RFU, FAM179B / Fold change vs veh, FAM179B / RFU, BCL10 / Fold change vs veh, BCL10 / RFU, UHRF1BP1L / Fold change vs veh, UHRF1BP1L / RFU, BET1 / Fold change vs veh, BET1 / RFU, CNOT2 / Fold change vs veh, CNOT2 / RFU, ZNF268 / Fold change vs veh, ZNF268 / Fold change vs veh, ZNF507 / RFU, DGCR2 / Fold change vs veh, DGCR2 / RFU, WDSUB1 / Fold change vs veh, WDSUB1 / Fold change vs veh, HSP90B1 /// MIR3652 / RFU, ADSS / Fold change vs veh, ADSS / RFU, GK / Fold change vs veh, GK / RFU, ZNF148 / Fold change vs veh, ZNF148 / RFU, TAF9 / Fold change vs veh, TAF9 / RFU, SLC1A5 / Fold change vs veh, SLC1A5 / RFU, SLMO2 / Fold change vs veh, SLMO2 / RFU, ABCC4 / Fold change vs veh, ABCC4 / RFU, LOC101060439 /// RAP1B / Fold change vs veh, LOC101060439 /// RAP1B / RFU, RFX7 / Fold change vs veh, RFX7 / RFU, GTPBP10 / Fold change vs veh, GTPBP10 / RFU, CNEP1R1 / Fold change vs veh, CNEP1R1 / RFU, BIVM-ERCC5 /// ERCC5 / Fold change vs veh, BIVM-ERCC5 /// ERCC5 / RFU, ILF3 / Fold change vs veh, ILF3 / RFU 11762660_at / Fold change /veh 11762660_at / RFU VCAN (11757783_s_at) / Fold change /veh VCAN (11757783_s_at) / RFU DDX43 (11728927_at) / Fold change /veh DDX43 (11728927_at) / RFU KRT8 (11758188_x_at) / Fold change /veh KRT8 (11758188_x_at) / RFU NKD1 (11759106_at) / Fold change /veh NKD1 (11759106_at) / RFU SRD5A1 (11742802_a_at) / Fold change /veh SRD5A1 (11742802_a_at) / RFU TPSAB1 /// TPSB2 (11721975_s_at) / Fold change /veh TPSAB1 /// TPSB2 (11721975_s_at) / RFU GSTM3 (11746129_a_at) / Fold change /veh GSTM3 (11746129_a_at) / RFU IL23R (11737362_x_at) / Fold change /veh IL23R (11737362_x_at) / RFU TMEM51 (11727254_a_at) / Fold change /veh TMEM51 (11727254_a_at) / RFU PIWIL2 (11732686_x_at) / Fold change /veh PIWIL2 (11732686_x_at) / RFU ORM1 (11744905_x_at) / Fold change /veh ORM1 (11744905_x_at) / RFU CCDC152 (11743942_at) / Fold change /veh CCDC152 (11743942_at) / RFU ECM1 (11717891_a_at) / Fold change /veh ECM1 (11717891_a_at) / RFU IL23R (11748794_a_at) / Fold change /veh IL23R (11748794_a_at) / RFU TNFAIP8L3 (11732012_x_at) / Fold change /veh TNFAIP8L3 (11732012_x_at) / RFU MBOAT4 (11741988_at) / Fold change /veh MBOAT4 (11741988_at) / RFU 11764193_at / Fold change /veh 11764193_at / RFU TMEM53 (11763286_at) / Fold change /veh TMEM53 (11763286_at) / RFU MAGEB2 (11727129_at) / Fold change /veh MAGEB2 (11727129_at) / RFU TMEM200A (11744735_a_at) / Fold change /veh TMEM200A (11744735_a_at) / RFU CCDC152 (11751479_a_at) / Fold change /veh CCDC152 (11751479_a_at) / RFU FAM211A (11726209_a_at) / Fold change /veh FAM211A (11726209_a_at) / RFU RGS16 (11746705_a_at) / Fold change /veh RGS16 (11746705_a_at) / RFU VCAN (11755009_s_at) / Fold change /veh VCAN (11755009_s_at) / RFU RHOB (11743442_s_at) / Fold change /veh RHOB (11743442_s_at) / RFU RGS16 (11720943_a_at) / Fold change /veh RGS16 (11720943_a_at) / RFU RGS16 (11720944_at) / Fold change /veh RGS16 (11720944_at) / RFU, VPS4B / Fold change vs veh, VPS4B / RFU, CREB1 / Fold change vs veh, CREB1 / RFU, DNAJC13 / Fold change vs veh, DNAJC13 / RFU, GNAQ / Fold change vs veh, GNAQ / RFU, CDK5R1 / Fold change vs veh, CDK5R1 / RFU, ZRANB3 / Fold change vs veh, ZRANB3 / RFU, CUL4A / Fold change vs veh, CUL4A / RFU, CCNY / Fold change vs veh, CCNY / RFU, UFL1 / Fold change vs veh, UFL1 / RFU, COG3 / Fold change vs veh, COG3 / RFU, DIAPH2 / Fold change vs veh, DIAPH2 / RFU, SKA2 / Fold change vs veh, SKA2 / RFU, AFF3 / Fold change vs veh, AFF3 / RFU, LMF1 / Fold change vs veh, LMF1 / RFU, IPO11 / Fold change vs veh, IPO11 / RFU, DFFB / Fold change vs veh, DFFB / RFU, FOXP1 / Fold change vs veh, FOXP1 / RFU, CARD8 / Fold change vs veh, CARD8 / RFU, STRN3 / Fold change vs veh, STRN3 / RFU, ADK / Fold change vs veh, ADK / RFU, RASSF2 / Fold change vs veh, RASSF2 / RFU, WIPF1 / Fold change vs veh, WIPF1 / RFU, LARP1B / Fold change vs veh, LARP1B / RFU, RASA1 / Fold change vs veh, RASA1 / RFU, RB1 / Fold change vs veh, RB1 / RFU, PPFIA1 / Fold change vs veh, PPFIA1 / RFU, MAT2A / Fold change vs veh, MAT2A / RFU, CCT5 / Fold change vs veh, CCT5 / RFU, WDR92 / Fold change vs veh, WDR92 / RFU, CUX1 / Fold change vs veh, CUX1 / RFU, TTC7A / Fold change vs veh, TTC7A / RFU, TMEM135 / Fold change vs veh, TMEM135 / RFU, DEPTOR / Fold change vs veh, DEPTOR / RFU, CPM / Fold change vs veh, CPM / RFU, DNAJB6 / Fold change vs veh, DNAJB6 / RFU, CACNA2D3 / Fold change vs veh, CACNA2D3 / RFU, DTX4 / Fold change vs veh, DTX4 / RFU, TFCP2 / Fold change vs veh, TFCP2 / RFU, GMCL1 /// GMCL1P1 / Fold change vs veh, GMCL1 /// GMCL1P1 / RFU, AEBP2 / Fold change vs veh, AEBP2 / RFU, SNHG1 /// SNORD22 /// SNORD25 /// SNORD26 /// SNORD27 /// SNORD28 /// SNORD29 /// SNORD31 / Fold change vs veh, SNHG1 /// SNORD22 /// SNORD25 /// SNORD26 /// SNORD27 /// SNORD28 /// SNORD29 /// SNORD31 / Fold change (Aza/veh), C12orf56 (ProbeSet 11735607_a_at) / Fold change (ACY-1035/veh), C12orf56 (ProbeSet 11735607_a_at) / Fold change (Aza/veh), FGFR1OP (ProbeSet 11751329_s_at) / Fold change (ACY-1035/veh), FGFR1OP (ProbeSet 11751329_s_at) / Fold change (Aza/veh), VPS36 (ProbeSet 11739960_a_at) / Fold change (ACY-1035/veh), VPS36 (ProbeSet 11739960_a_at) / RFU SYPL1 (11715823_x_at) / Fold change /veh SYPL1 (11715823_x_at) / RFU IGFBP7 (11715501_s_at) / Fold change /veh IGFBP7 (11715501_s_at) / RFU REEP3 (11722064_at) / Fold change /veh REEP3 (11722064_at) / RFU IGLL1 (11728026_x_at) / Fold change /veh IGLL1 (11728026_x_at): dose or concentration left out as unconfirmed
Conditions: MV-4-11 cells, 48 hours

## Nc1ccc(-c2cccs2)cc1NC(=O)c1ccc2c(c1)cc(C1CC1)n2CCN1CCOCC1 [ACY-1035]
  Fold change /veh KIR2DL2 /// KIR2DL4 /// KIR2DL5A /// KIR2DL5B /// KIR2DS1 /// KIR2DS2 /// KIR2DS3 /// KIR2DS4 /// KIR3DL3 /// KIR3DL3 /// KIR3DS1 (11738374_at): 0.96
